The subject of assay [1] is Pseudomonas aeruginosa ATCC 15442. The experiment in a line: BCT test (bacterial contact time), 60 s, log reduction / effect fraction; CI by Compusyn. It is filed as cell-based. The following applies: Pseudomonas aeruginosa, ATCC15442, 1 min, BCT 60 s, in 25% EtOH. The procedure, abridged:
(§1)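 Combination index comes from dose and effect fraction of each blend and its single components, with values under 0.9 taken as synergistic and above 1.0 as antagonistic. Effect reflects log reduction in viable count after short contact of ~1×10^8 bacteria/mL with ethanolic test solutions.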

The subject of assay [2] is Salmonella enterica ATCC 10708. Described as above. It is filed as cell-based. The following applies: Salmonella enterica, ATCC10708, 1 min, BCT 60 s, in 25% EtOH. The procedure, abridged:
as §1

A further assay relates to E. coli ATCC 10536. The experiment in a line: BCT test (bacterial contact time), 45 s, log reduction / effect fraction; CI by Compusyn. The assay is classed as cell-based, Escherichia coli. The following applies: Escherichia coli, ATCC10536, 45 s. Summed up: as §1
For a further assay, the system named is C. xerosis ATCC 373. The experiment in a line: BCT test (bacterial contact time), 120 s, log reduction / effect fraction; CI by Compusyn. The following applies: Corynebacterium xerosis, ATCC373, 2 min, contact 120 s, 25% EtOH. It is filed as cell-based. As to the method:
C. xerosis: Suspensions of the C. xerosis ATCC 373 strain were prepared as follows: Stock cultures (stored at −80° C.) were thawed and subcultured onto Tryptic Soy Agar media with Tween 80 (TSA-TW80), and incubated at 37° C. for 48 h. The primary cultures were subcultured onto TSA-TW80 again, to prepare the secondary cultures. Single colonies of the secondary cultures were selected and used to inoculate 30 ml brain heart infusion broth with Tween 80 (BHI-TW80). The inoculated broth was incubated at 37° C. at 180 rpm for 24 h. Aliquots (1 ml) of the 24 h culture were inoculated into 30 ml of fresh BHI-TW80 broth media, and incubated at 37° C. at 180 rpm for 48 h. Aliquots (2-3 ml) of the 48 h culture were inoculated into four 50 ml of fresh BHI-TW80 broth media, and incubated at 37° C. 180 rpm for 4-6 hrs. When the OD 600 nm reached the target value of 1.6, cells were harvested by centrifugation at 5000 rpm for 10 min, and then resuspended in the same fresh BHI-TW80 at a concentration of 10^9 to 10^10 cfu/mL. This suspension was used as the bacterial suspension for the BCT test.
BCT Test: Test compositions at a range of concentrations (either combinations of more than one perfume ingredient, and comparative compositions comprising the single perfume ingredients) were prepared in ethanol. Five replicates of each test composition were added into 96-well microtiter plates (120 μl per well), with row B containing control compositions containing the ethanol solution alone. 120 μl of bacterial cell suspensions at a concentration of approximately 1×10^8 bacteria per mL (as prepared above) were added to each well of the microtiter plate. The bacterial suspensions were incubated with the test solutions for 45, 60, or 120 seconds. Following the incubation of the bacterial suspensions with the test solutions, serial dilutions of the bacterial suspensions were generated (three serial 1:10 dilutions, followed by 17 serial 1:2 dilutions), in multiwell microtiter plates.
Each plate was sealed and incubated at 37° C. under agitation (180 rpm). After incubation, the turbidity of the wells (OD600 nm) was determined using a Tecan microplate reader. Turbid wells were regarded as positive growth, due to the presence of viable cells. The total number of viable cells (log CFU) for each sample was calculated. And the log reduction for each test composition at the final concentration (dose) was calculated against the control sample of the ethanol solution.
Determination of Synergy via the Combination Index (CI): The CI was calculated using Compusyn software (ComboSyn, Inc., as created by Dr. Dorothy Chou in 2005), according to the manufacturer's instructions. The concentration of each test composition (combinations of more than one perfume ingredient, and comparative compositions comprising the single perfume ingredients used to generate the combination) and their corresponding effect fraction was entered, and the corresponding CI calculated.
When the calculated CI values were less than 0.9, the combination of perfume ingredients was regarded as having synergistic effect. When the calculated CI was between 1.0 a 0.9, the combination of perfume ingredients was regarded as having an additive effect. When the calculated CI was greater than 1.0, the combination of perfume ingredients was regarded as having an antagonistic effect.

The next assay concerns S. aureus ATCC 6538. The experiment in a line: BCT test (bacterial contact time), 60 s, log reduction / effect fraction; CI by Compusyn. The settings on record: Staphylococcus aureus, ATCC6538, 1 min, 60 s, in 25% EtOH. The assay is classed as cell-based, Staphylococcus aureus. The procedure, abridged:
as §1

Structures are written as SMILES.

In the case of `CC(CCO)CCc1ccccc1` (stereo not shown) [Phenylhexanol, 3-methyl-5-phenyl-1-pentanol], the log reduction at 0.05 % strength in assay [1] (Dose 0.05 % w/v) came out at 3.7; with E. coli ATCC 10536 (dose 0.05% w/v, contact 45 s, 20% EtOH), 7.2; in the assay on S. aureus ATCC 6538 (dose 0.050 % w/v), 1. Also, the log reduction at 0.06 % strength in assay [1] (Dose 0.06 % w/v) turned out to be 5.3; in the assay with S. aureus ATCC 6538 (dose 0.060 % w/v), 3.3. The log reduction at 0.07 % strength came out at 7.1 in assay [1] (Dose 0.07 % w/v) and 6.7 in the assay on S. aureus ATCC 6538 (dose 0.070 % w/v). The log reduction at 0.08 % strength is 7.5 in assay [1] (Dose 0.08 % w/v) and 7 with S. aureus ATCC 6538 (dose 0.080 % w/v). The log reduction at 0.045 % strength in assay [2] (Dose 0.045 % w/v) was 7.9. Besides, the log reduction at 0.02 % strength with E. coli ATCC 10536 (dose 0.02% w/v, contact 45 s, 20% EtOH) came to 0. In addition, the log reduction at 0.03 % strength in the assay with E. coli ATCC 10536 (dose 0.03% w/v, contact 45 s, 20% EtOH) was determined as 0. Also, the log reduction at 0.035 % strength with E. coli ATCC 10536 (dose 0.035% w/v, contact 45 s, 20% EtOH) was found to be 1.1. In addition, the log reduction at 0.04 % strength in the assay on E. coli ATCC 10536 (dose 0.04% w/v, contact 45 s, 20% EtOH) worked out at 2.4. For the same compound, the log reduction at 0.15 % strength with C. xerosis ATCC 373 (dose 0.15% w/v) came out at 2.5. Also, the log reduction at 0.2 % strength with C. xerosis ATCC 373 (dose 0.2% w/v, read-out: Log reduction) was 4.2. The log reduction at 0.25 % strength with C. xerosis ATCC 373 (dose 0.25% w/v, read-out: Log reduction) turned out to be 5.1. The log reduction at 0.3 % strength in the assay on C. xerosis ATCC 373 (dose 0.3% w/v, read-out: Log reduction) stood at 5.9. Further, the log reduction at 0.09 % strength with S. aureus ATCC 6538 (dose 0.090 % w/v) turned out to be 7.5.

Turning to `O=c1ccc2ccccc2o1` [Coumarine, 2H-chromen-2-one], the log reduction at 0.3 % strength was 0.4 in assay [1] (Dose 0.3 % w/v, read-out: Log reduction) and 0.2 in assay [2] (Dose 0.300 % w/v). In addition, the log reduction at 0.35 % strength in assay [1] (Dose 0.35 % w/v) amounted to 0.4. The log reduction at 0.4 % strength in assay [1] (Dose 0.4 % w/v, read-out: Log reduction) is 0.7; in assay [2] (Dose 0.400 % w/v), 3. Further, the log reduction at 0.45 % strength in assay [1] (Dose 0.45 % w/v, read-out: Log reduction) amounted to 1.2; in assay [2] (Dose 0.450 % w/v), 5.1. Further, the log reduction at 0.5 % strength in assay [1] (Dose 0.5 % w/v) is 2.9; in assay [2] (Dose 0.500 % w/v), 7.5; in the assay with E. coli ATCC 10536 (dose 0.500 % w/v, 45 s, in 20% EtOH), -0.1; in the assay on S. aureus ATCC 6538 (dose 0.500 % w/v, read-out: Log reduction), -0.1. Moreover, the log reduction at 0.6 % strength in assay [2] (Dose 0.600 % w/v) is 7.5; with E. coli ATCC 10536 (dose 0.600 % w/v, 45 s, in 20% EtOH, read-out: Log reduction), 0.2. Further, the log reduction at 0.65 % strength with E. coli ATCC 10536 (dose 0.650 % w/v, 45 s, in 20% EtOH) was 0.5. In addition, the log reduction at 0.7 % strength in the assay with E. coli ATCC 10536 (dose 0.700 % w/v, 45 s, in 20% EtOH) is 2.8. Moreover, in the assay on E. coli ATCC 10536 (dose 0.800 % w/v, 45 s, in 20% EtOH), the log reduction at 0.8 % strength amounted to 7.3. Besides, the log reduction at 0.75 % strength with C. xerosis ATCC 373 (dose 0.75% w/v) was -0.2; with S. aureus ATCC 6538 (dose 0.750 % w/v, read-out: Log reduction), 0.4. Also, the log reduction at 1 % strength with C. xerosis ATCC 373 (dose 1.0% w/v) was 0.8; with S. aureus ATCC 6538 (dose 1.000 % w/v, read-out: Log reduction), 2.1. For the same compound, the log reduction at 1.25 % strength in the assay with C. xerosis ATCC 373 (dose 1.25% w/v) turned out to be 2.6; with S. aureus ATCC 6538 (dose 1.250 % w/v), 7. Further, the log reduction at 1.5 % strength in the assay on C. xerosis ATCC 373 (dose 1.5% w/v) stood at 2.7. In addition, in the assay with S. aureus ATCC 6538 (dose 0.875 % w/v), the log reduction at 0.875 % strength came out at 0.8.

(Values after patent US12419305B2, “Antimicrobial compositions” (Firmenich SA, priority 2018, dated 2025).)
